Where “and” joins values, the source holds several entries; their conditions need not be identical. Equal values may be shown once.
Test system: 817829-284-R-J1-PDC multi-cell spheroid viability
Assay: Anticancer human tumor 817829-284-R-J1-PDC patient-derived colon adenocarcinoma cell line growth inhibition [PI3K]
Details: for viability, T/C: stronger effect = lower value
In short: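 Tumor cells grown as multi-cell spheroids with HUVEC endothelial cells and MSC fibroblast-like stroma were treated with targeted agents combined with inavolisib, alpelisib, duvelisib or copanlisib. Doses fell in half-log steps from near clinical Cmax, else from 10 microM. Viability was measured.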
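Also: spheroids exposed to agents for seven days before readout.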
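For viability, T/C in this document: percent of vehicle DMSO control viability which is 100%.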

## CC1(C)CCC(CN2CCN(c3ccc(C(=O)NS(=O)(=O)c4ccc(NCC5CCOCC5)c([N+](=O)[O-])c4)c(Oc4cnc5[nH]ccc5c4)c3)CC2)=C(c2ccc(Cl)cc2)C1 + Cc1nc(NC(=O)N2CCCC2C(N)=O)sc1-c1ccnc(C(C)(C)C(F)(F)F)c1
Curve of first compound, second compound 0.0316 µM
  IC50: 5.01 µM
Curve of first compound, second compound 0.1 µM
  IC50: 4.25 µM
Curve of first compound, second compound 0.316 µM
  IC50: 3.89 µM
Curve of first compound, second compound 1 µM
  IC50: 3.47 µM
Curve of first compound, second compound 3.16 µM
  IC50: 4.74 µM
Curve of first compound, second compound 10 µM
  IC50: 2.43 µM
Second compound 0.0316 µM, first compound 0.0316 µM
  viability, T/C: 86.7%
Second compound 0.0316 µM, first compound 0.1 µM
  viability, T/C: 69.7%
Second compound 0.0316 µM, first compound 0.316 µM
  viability, T/C: 119%
Second compound 0.0316 µM, first compound 1 µM
  viability, T/C: 42.6%
Second compound 0.0316 µM, first compound 3.16 µM
  viability, T/C: 84.3%
Second compound 0.0316 µM, first compound 10 µM
  viability, T/C: 4.12%
Second compound 0.1 µM, first compound 0.0316 µM
  viability, T/C: 97.7%
Second compound 0.1 µM, first compound 0.1 µM
  viability, T/C: 67.1%
Second compound 0.1 µM, first compound 0.316 µM
  viability, T/C: 98.3%
Second compound 0.1 µM, first compound 1 µM
  viability, T/C: 87.8%
Second compound 0.1 µM, first compound 3.16 µM
  viability, T/C: 65.6%
Second compound 0.1 µM, first compound 10 µM
  viability, T/C: 4.95%
Second compound 0.316 µM, first compound 0.0316 µM
  viability, T/C: 67.2%
Second compound 0.316 µM, first compound 0.1 µM
  viability, T/C: 58.8%
Second compound 0.316 µM, first compound 0.316 µM
  viability, T/C: 72.7%
Second compound 0.316 µM, first compound 1 µM
  viability, T/C: 70.4%
Second compound 0.316 µM, first compound 3.16 µM
  viability, T/C: 58.6%
Second compound 0.316 µM, first compound 10 µM
  viability, T/C: 6.66%
Second compound 1 µM, first compound 0.0316 µM
  viability, T/C: 65.9%
Second compound 1 µM, first compound 0.1 µM
  viability, T/C: 67.7%
Second compound 1 µM, first compound 0.316 µM
  viability, T/C: 82.7%
Second compound 1 µM, first compound 1 µM
  viability, T/C: 72.6%
Second compound 1 µM, first compound 3.16 µM
  viability, T/C: 54.1%
Second compound 1 µM, first compound 10 µM
  viability, T/C: 3.59%
Second compound 3.16 µM, first compound 0.0316 µM
  viability, T/C: 73.6%
Second compound 3.16 µM, first compound 0.1 µM
  viability, T/C: 62.2%
Second compound 3.16 µM, first compound 0.316 µM
  viability, T/C: 104%
Second compound 3.16 µM, first compound 1 µM
  viability, T/C: 72.2%
Second compound 3.16 µM, first compound 3.16 µM
  viability, T/C: 74.2%
Second compound 3.16 µM, first compound 10 µM
  viability, T/C: 5.23%
Second compound 10 µM, first compound 0.0316 µM
  viability, T/C: 81.1%
Second compound 10 µM, first compound 0.1 µM
  viability, T/C: 89.8%
Second compound 10 µM, first compound 0.316 µM
  viability, T/C: 57.6%
Second compound 10 µM, first compound 1 µM
  viability, T/C: 78.8%
Second compound 10 µM, first compound 3.16 µM
  viability, T/C: 42%
Second compound 10 µM, first compound 10 µM
  viability, T/C: 2.17%

## CC(C)n1nc(-c2ccc3oc(N)nc3c2)c2c(N)ncnc21
Compound 0.000316 µM
  viability, T/C: 54.7% and 69.8% and 94.8%
Compound 0.001 µM
  viability, T/C: 120% and 96.8% and 70%
Compound 0.00316 µM
  viability, T/C: 68.2% and 77.3% and 63.2%
Compound 0.01 µM
  viability, T/C: 52.8% and 72.2% and 93.4%
Compound 0.0316 µM
  viability, T/C: 58.9% and 37.7% and 41.6%
Compound 0.1 µM
  viability, T/C: 21.2% and 24% and 17.7%
Curve of compound
  IC50: 0.033 µM and 0.0209 µM and 0.0246 µM

Reference: PubChem BioAssay AID1963969 (Molecular Pharmacology Branch, DTP, NCI, 2024)
